Molecular target: T1, ZAP-70 (Homo sapiens, UniProt P43403)
T1 sequence (P43403 1-619): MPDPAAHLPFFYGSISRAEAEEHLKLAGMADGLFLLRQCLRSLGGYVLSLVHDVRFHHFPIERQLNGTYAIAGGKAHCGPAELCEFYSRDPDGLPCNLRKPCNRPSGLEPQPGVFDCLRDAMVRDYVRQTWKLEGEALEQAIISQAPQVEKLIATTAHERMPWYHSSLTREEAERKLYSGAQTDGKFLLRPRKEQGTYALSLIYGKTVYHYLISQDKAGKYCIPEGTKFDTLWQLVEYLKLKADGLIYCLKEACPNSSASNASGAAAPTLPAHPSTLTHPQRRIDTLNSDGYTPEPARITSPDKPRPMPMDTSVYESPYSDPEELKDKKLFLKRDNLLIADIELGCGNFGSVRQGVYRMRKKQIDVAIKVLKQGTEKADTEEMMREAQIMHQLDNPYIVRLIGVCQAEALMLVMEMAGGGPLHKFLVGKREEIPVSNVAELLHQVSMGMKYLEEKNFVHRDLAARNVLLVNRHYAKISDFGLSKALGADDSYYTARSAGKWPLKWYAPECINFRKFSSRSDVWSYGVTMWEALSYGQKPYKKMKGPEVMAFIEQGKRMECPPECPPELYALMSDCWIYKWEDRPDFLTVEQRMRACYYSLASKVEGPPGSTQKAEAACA
Assay: DELFIA assay (ZAP-70 kinase, phosphorylation of biotinylated poly(glu,tyr))
Assay type: biochemical
Conditions: ZAP-70 DELFIA, class symbols; read-out: Activity (IC50 in vitro)
In short: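 3.1 nM ZAP-70 pre-incubated 10 min at room temperature with compound ([…]) and 62.5 nM biotinylated poly(glu,tyr) in 62.5 mM Mops pH 7.0, 12.5 mM MgCl2, 12.5% glycerol, 6.25% DMSO (pre-incubation concentrations); ATP added from 5 mM stock, 30 min reaction, EDTA stop. Phosphorylation read by DELFIA europium anti-phosphotyrosine fluorescence (340/615).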

Compared with `O=C(c1cc(Sc2ccc(OC(F)(F)F)cc2)nc2ccc(-c3ccc4c(c3)OCO4)cc12)N1CCC[C@H]1CN1CCCC1` [Compound 325], `O=C(c1cc(Sc2ccc(C(F)(F)F)cc2)nc2ccc(-c3ccc4c(c3)OCO4)cc12)N1CCC[C@H]1CN1CCCC1` [Compound 323] is higher in IC50: < 1 µM for the first, > 10 µM for the second. The first is the more potent here.

`O=C(c1cc(NCc2cccs2)nc2ccc(-c3ccc4c(c3)OCO4)cc12)N1CCC[C@H]1CN1CCCC1` [Compound 50] and `O=C(c1cc(NCc2ccccc2Cl)nc2ccc(-c3ccc4c(c3)OCO4)cc12)N1CCC[C@H]1CN1CCCC1` [Compound 36] cannot be ordered by IC50: < 1 µM for the first, < 1 µM for the second.

`O=C(c1cc(N2CCC(O)CC2)nc2ccc(-c3ccc4c(c3)OCO4)cc12)N1CCC[C@H]1CN1CCCC1` [Compound 90] and `O=C(c1cc(N2CCCC2)nc2ccc(-c3ccc4c(c3)OCO4)cc12)N1CCC[C@H]1CN1CCCC1` [Compound 63] fall in the same range of IC50: 1 to 10 µM for the first, 1 to 10 µM for the second.

`O=C(c1cc(Nc2ccc3ncsc3c2)nc2ccc(-c3ccc4c(c3)OCO4)cc12)N1CCC[C@H]1CN1CCCC1` [Compound 56] and `O=C(c1cc(NCc2ccc(F)cc2F)nc2ccc(-c3ccc4c(c3)OCO4)cc12)N1CCC[C@H]1CN1CCCC1` [Compound 46] cannot be ordered by IC50: < 1 µM for the first, < 1 µM for the second.

First: O=C(c1cc(NCc2ccc(C(F)(F)F)cc2)nc2ccc(-c3cccc(F)c3)cc12)N1CCC[C@H]1CN1CCCC1 [Compound 304]
Second: N#Cc1cccc(-c2ccc3nc(NCc4ccc(C(F)(F)F)cc4)cc(C(=O)N4CCC[C@H]4CN4CCCC4)c3c2)c1 [Compound 106]
The IC50 of the first is higher: 1 to 10 µM for the first, < 1 µM for the second. The second is the more potent here.

First: O=C(c1cc(NCc2ccc(C(F)(F)F)cc2)nc2ccc(-c3ccc4c(c3)OCC4)cc12)N1CCC[C@H]1CN1CCCC1 [Compound 280]
Second: O=C(c1cc(NCc2ccc(C(F)(F)F)cc2)nc2ccc(-c3ccc4c(c3)OCO4)cc12)N1CCCC1CCN1CCCC1 (stereo not drawn) [Compound 109]
The IC50 of the first is lower: < 1 µM for the first, 1 to 10 µM for the second.

Compared with `N#Cc1cncc(-c2ccc3nc(NCc4ccc(C(F)(F)F)cc4)cc(C(=O)N4CCC[C@H]4CN4CCCC4)c3c2)c1` [Compound 339], `N#Cc1ccc(-c2ccc3c(C(=O)N4CCC[C@H]4CN4CCCC4)cc(NCc4ccc(C(F)(F)F)cc4)nc3c2)cc1` [Compound 120] is lower in IC50: > 10 µM for the first, 1 to 10 µM for the second. The second is the more potent here.

First: COc1cc(C(=O)N2CCC[C@H]2CN2CCCC2)cc(-c2ccc3c(c2)OCO3)n1 [Compound 6]
Second: O=C(c1cc(Oc2ccccc2)nc2ccc(-c3ccc4c(c3)OCO4)cc12)N1CCC[C@H]1CN1CCCC1 [Compound 22]
The IC50 of the first is higher: > 10 µM for the first, < 1 µM for the second.

Going from `O=C(c1cc(NCc2ccc(C(F)(F)F)cc2)nc2ccc(-c3cc(Cl)cc(Cl)c3)cc12)N1CCC[C@H]1CN1CCCC1` [Compound 292] to `Cc1ccsc1-c1ccc2nc(NCc3ccc(C(F)(F)F)cc3)cc(C(=O)N3CCC[C@H]3CN3CCCC3)c2c1` [Compound 337], the IC50 rises from < 1 µM to > 10 µM.

First: O=C(c1cc(NCc2ccc(C(F)(F)F)cc2)nc2ccc(-c3ccc4c(c3)OCO4)cc12)N1CCC[C@H]1CNC1CCCCC1 [Compound 360]
Second: N=C(NC1CCCCC1)[C@@H]1CCCN1C(=O)c1cc(NCc2ccc(C(F)(F)F)cc2)nc2ccc(-c3ccc4c(c3)OCO4)cc12 [Compound 380]
The IC50 of the first is lower: 1 to 10 µM for the first, > 10 µM for the second.

`O=C(c1cc(NCc2ccccc2)nc2ccc(-c3ccc4c(c3)OCO4)cc12)N1CCC[C@H]1CN1CCCCC1` [Compound 82] and `O=C(Nc1ccccc1)c1cc(C(=O)N2CCC[C@H]2CN2CCCC2)c2cc(-c3ccc4c(c3)OCO4)ccc2n1` [Compound 144] fall in the same range of IC50: 1 to 10 µM for the first, 1 to 10 µM for the second.

`O=C(c1cc(Cl)ncc1Cl)N1CCC[C@H]1CN1CCCC1` [Compound 112] and `O=C(c1cc(NCc2ccccc2)nc2ccccc12)N1CCC[C@H]1CN1CCCC1` [Compound 14] cannot be ordered by IC50: > 10 µM for the first, > 10 µM for the second.

`C[C@H](Nc1cc(C(=O)N2CCC[C@H]2CN2CCCC2)c2cc(-c3ccc(C#N)cc3)ccc2n1)c1ccc(Br)cc1` [Compound 221] and `COc1cccc([C@@H](C)Nc2cc(C(=O)N3CCC[C@H]3CN3CCCC3)c3cc(-c4ccc(C#N)cc4)ccc3n2)c1` [Compound 203] cannot be ordered by IC50: > 10 µM for the first, > 10 µM for the second.

`CN(CCc1ccccc1)c1cc(C(=O)N2CCC[C@H]2CN2CCCC2)cc(N(C)CCc2ccccc2)n1` [Compound 372] and `CN(Cc1ccccc1)c1cc(C(=O)N2CCC[C@H]2CN2CCCC2)cc(N(C)c2ccccc2)n1` [Compound 363] fall in the same range of IC50: 1 to 10 µM for the first, 1 to 10 µM for the second.

`CN(Cc1ccccc1)c1cc(C(=O)N2CCC[C@H]2CN2CCCC2)cc(-c2ccccc2)n1` [Compound 275] and `CN(CCc1ccccc1)c1cc(C(=O)N2CCC[C@H]2CN2CCCC2)c2cc(-c3ccc(C#N)cc3)ccc2n1` [Compound 175] cannot be ordered by IC50: > 10 µM for the first, > 10 µM for the second.

`N#Cc1ccc(-c2ccc3nc(NCc4ccccc4OC(F)(F)F)cc(C(=O)N4CCC[C@H]4CN4CCCC4)c3c2)cc1` [Compound 236] and `N#Cc1ccc(-c2ccc3nc(NCc4csc5ccccc45)cc(C(=O)N4CCC[C@H]4CN4CCCC4)c3c2)cc1` [Compound 231] cannot be ordered by IC50: > 10 µM for the first, > 10 µM for the second.

`CCCCc1ccc2nc(NCc3ccc(C(F)(F)F)cc3)cc(C(=O)N3CCC[C@H]3CN3CCCC3)c2c1` [Compound 291] and `O=C(c1cc(NCc2ccc(C(F)(F)F)cc2)nc2ccc(-c3nc4ccccc4[nH]3)cc12)N1CCC[C@H]1CN1CCCC1` [Compound 354] cannot be ordered by IC50: > 10 µM for the first, > 10 µM for the second.

`N#Cc1ccc(-c2ccc3nc(NCc4ccc(F)cc4)cc(C(=O)N4CCC[C@H]4CN4CCCC4)c3c2)cc1` [Compound 159] and `N#Cc1ccc(-c2ccc3nc(NCCc4ccccc4)cc(C(=O)N4CCC[C@H]4CN4CCCC4)c3c2)cc1` [Compound 170] cannot be ordered by IC50: > 10 µM for the first, > 10 µM for the second.

First: O=C(c1cc(-c2ccc(F)c(Cl)c2)nc2ccc(-c3ccc(F)c(Cl)c3)cc12)N1CCC[C@H]1CN1CCCC1 [Compound 95]
Second: N#Cc1ccc(-c2ccc3nc(NCCc4ccc(Cl)c(Cl)c4)cc(C(=O)N4CCC[C@H]4CN4CCCC4)c3c2)cc1 [Compound 220]
The IC50 of the first is lower: 1 to 10 µM for the first, > 10 µM for the second.

First: CN1CCC(N(C)c2cc(C(=O)N3CCC[C@H]3CN3CCCC3)c3cc(-c4ccc5c(c4)OCO5)ccc3n2)CC1 [Compound 60]
Second: CN1CCN(c2cc(C(=O)N3CCC[C@H]3CN3CCCC3)c3cc(-c4ccc5c(c4)OCO5)ccc3n2)CC1 [Compound 61]
The IC50 of the first is lower: < 1 µM for the first, 1 to 10 µM for the second.

First: CC(CNC(=O)c1cc(C(=O)N2CCC[C@H]2CN2CCCC2)c2cc(-c3ccc4c(c3)OCO4)ccc2n1)c1ccccc1 (stereo partly drawn) [Compound 142]
Second: O=C(c1cc(Nc2ccc(N3CCNCC3)cc2)nc2ccc(-c3ccc4c(c3)OCO4)cc12)N1CCCC1CN1CCCC1 (stereo not drawn) [Compound 428]
The IC50 of the first is higher: 1 to 10 µM for the first, < 1 µM for the second.

First: O=C(c1cc(NCc2ccc(C(F)(F)F)cc2)nc2ccc(-c3cncc4ccccc34)cc12)N1CCC[C@H]1CN1CCCC1 [Compound 335]
Second: O=C(c1cc(NCc2ccc(C(F)(F)F)cc2)nc2ccc(-c3cccc(C(F)(F)F)c3)cc12)N1CCC[C@H]1CN1CCCC1 [Compound 295]
The IC50 of the first is higher: > 10 µM for the first, 1 to 10 µM for the second.

First: CN(C)C(=O)c1ccc(-c2ccc3nc(NCc4ccc(C(F)(F)F)cc4)cc(C(=O)N4CCC[C@H]4CN4CCCC4)c3c2)cc1 [Compound 420]
Second: O=C(c1cc(NCc2ccc(C(F)(F)F)cc2)nc2ccc(-c3ccc(OC(F)(F)F)cc3)cc12)N1CCC[C@H]1CN1CCCC1 [Compound 309]
The IC50 of the first is higher: > 10 µM for the first, 1 to 10 µM for the second.

`N#Cc1ccc(-c2ccc3nc(NC4Cc5ccccc5C4)cc(C(=O)N4CCC[C@H]4CN4CCCC4)c3c2)cc1` [Compound 155] and `O=C(c1cc(NCCN2CCOCC2)nc2ccc(-c3ccc4c(c3)OCO4)cc12)N1CCC[C@H]1CN1CCCC1` [Compound 26] cannot be ordered by IC50: > 10 µM for the first, > 10 µM for the second.

Reference: patent US20080119515A1, “Heterocyclic Kinase Inhibitors: Methods of Use and Synthesis” (priority 2003, published 2008)
